Values joined by “and” are separate entries in the source; they are usually repeats but may differ in a detail not shown here. Equal values may be shown once. Read-outs that look alike come from different tables or passages of the source.
Columns and labels:
[1] = target: T1, human erythrocyte plasma membrane Ca^2+ -ATPase (Homo sapiens, UniProt P23634); assay: Ca^2+ -ATPase assay (erythrocyte membranes; Table 1); assay type: biochemical
T1 construct: Calmodulin-depleted erythrocyte membranes were prepared by continuous filtration through a hollow fibre; tissue New South Wales Red Cross Transfusion Service, Sydney; host or cells: human packed red blood cells (calmodulin-depleted erythrocyte membranes)
T1 sequence (P23634 1-1205 isoform P23634-6): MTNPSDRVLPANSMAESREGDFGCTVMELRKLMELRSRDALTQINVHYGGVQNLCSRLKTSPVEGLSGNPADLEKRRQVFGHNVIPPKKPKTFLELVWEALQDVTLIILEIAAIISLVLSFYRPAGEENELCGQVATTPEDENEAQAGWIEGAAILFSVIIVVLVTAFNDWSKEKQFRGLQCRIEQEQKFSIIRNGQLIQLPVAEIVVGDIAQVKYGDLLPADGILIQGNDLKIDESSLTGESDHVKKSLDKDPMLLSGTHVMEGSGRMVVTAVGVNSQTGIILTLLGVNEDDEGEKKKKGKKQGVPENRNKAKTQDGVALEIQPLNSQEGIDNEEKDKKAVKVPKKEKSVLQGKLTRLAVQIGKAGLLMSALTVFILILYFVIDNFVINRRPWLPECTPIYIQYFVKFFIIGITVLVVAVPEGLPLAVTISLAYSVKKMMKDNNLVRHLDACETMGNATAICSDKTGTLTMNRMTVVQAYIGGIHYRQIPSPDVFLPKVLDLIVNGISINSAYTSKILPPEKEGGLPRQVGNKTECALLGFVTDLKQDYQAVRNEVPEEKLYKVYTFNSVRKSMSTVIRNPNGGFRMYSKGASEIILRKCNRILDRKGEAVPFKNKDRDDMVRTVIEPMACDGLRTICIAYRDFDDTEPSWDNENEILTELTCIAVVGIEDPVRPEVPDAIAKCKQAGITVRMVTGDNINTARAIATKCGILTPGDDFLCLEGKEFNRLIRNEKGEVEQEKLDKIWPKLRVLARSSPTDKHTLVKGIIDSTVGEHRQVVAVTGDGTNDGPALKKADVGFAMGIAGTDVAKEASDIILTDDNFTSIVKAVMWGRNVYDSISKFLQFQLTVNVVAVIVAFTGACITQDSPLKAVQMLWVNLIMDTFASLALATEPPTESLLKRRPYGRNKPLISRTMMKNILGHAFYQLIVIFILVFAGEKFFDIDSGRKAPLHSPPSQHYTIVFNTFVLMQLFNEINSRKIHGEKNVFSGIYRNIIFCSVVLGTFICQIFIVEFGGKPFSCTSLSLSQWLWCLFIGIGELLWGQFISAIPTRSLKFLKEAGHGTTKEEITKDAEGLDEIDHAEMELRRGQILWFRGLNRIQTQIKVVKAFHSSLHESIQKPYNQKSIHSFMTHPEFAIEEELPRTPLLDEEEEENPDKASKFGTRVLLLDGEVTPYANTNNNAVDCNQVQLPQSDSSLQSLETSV
T1 sequence (P35613 140-385 partner limits assumed): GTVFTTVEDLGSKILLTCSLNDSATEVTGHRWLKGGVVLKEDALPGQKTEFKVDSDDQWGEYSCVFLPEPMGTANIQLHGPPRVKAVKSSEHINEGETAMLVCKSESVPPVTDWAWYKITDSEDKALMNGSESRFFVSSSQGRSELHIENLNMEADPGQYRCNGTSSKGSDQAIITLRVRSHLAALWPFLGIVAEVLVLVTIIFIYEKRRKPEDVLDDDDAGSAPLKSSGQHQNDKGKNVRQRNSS
Method: Natural and synthetic compounds of formula (I) were tested for their ability to influence human erythrocyte plasma membrane Ca^2+ -ATPase.
Packed cells were obtained from the New South Wales Red Cross Transfusion Service, Sydney. The whole preparation was carried out at 4° C. 1 unit of packed red cells was washed 3 times with isotonic buffer, containing 130 mM KCl, 20 mM Tris-HCl (pH 7.4), and the cells were collected by centrifugation at 4,000 RPM. The cells were haemolysed by the buffer containing 1 mM EDTA, 10 mM Tris-Hcl (pH 7.4), 0.5 mM PMSF (phenylmethyl sulfonyl fluoride). The haemolyzate mixture was passed through the hollow fibre system until the membrane appeared white, and then washed with 10 mM potassium Hepes (pH 7.4). The membranes were collected by centrifugation at 10,000 RPM for 20 min, the membranes were resuspended in storage buffer containing 130 mM KCl, 2 mM dithiothreitol, 0.5 mM MgCl2, 20 mM potassium-Hepes (pH 7.5). The membranes with protein concentration of 1.5-5.4 mg/ml were stored at -80° C. until required.
Erythrocyte membranes (0.071-0.098 mg/ml) were incubated at 37° C. for one hour in a total volume of 0.4 ml of 65 mM KCl, 20 mM potassium-Hepes, 5 mM MgCl2, 50 μM CaCl2, 0.1 μm calmodulin, 0.1 mM EGTA. The reaction was started by adding 2 mM ATP(pH 7.4). […] The activity of the Mg^2+ -ATPase (assayed in the absence of added CaCl2) was subtracted from the total activity assayed in the presence of Ca^2+. […] A concentrated solution of the test substances was added to the reaction medium before adding ATP.

[2] = tested on: brine shrimp (Artemia salina Leach); assay: Brine shrimp toxicity bioassay; assay type: in vivo; conditions: for LC50: read-out: LC50 brine shrimp
Method: There are many applications of the assay including analysis of toxic substances, anaesthetics, morphine-like substances and cocarcinogenicity of phorbol esters.
6 (K Hostettman, ed.), Academ Press, London, 1-32. DMSO solutions of the substances to be tested were added directly to the vials containing the brine shrimp. As the concentration of DMSO that we wished to use was higher than the recommended 1% v/v testing of the toxicity of the DMSO was therefore necessary.
Brine shrimp toxicity was assayed, except for some minor modifications, according to the method of McLaughlin et al as reported in Brine Shrimp: A convenient general bioassay for active plant constituents, B N Meyer, N R Ferrigni, J E Putman, L B Jacobsen, D E Nhols and J L McLaughlin. […] J L McLaughlin. […] 6 (K Hostettman, ed.), Academ Press, London, 1-32. Ten shrimp were added transferred to each of the vials and the volume adjusted to 4.9 mL. Each dose was performed in triplicate, including the control. In quick succession, the appropriate volume of additional DMSO for each dose, required to achieve a final concentration of 2%, was added before the appropriate volume of test solution. The vials were gently mixed and the time noted. After 24 hours, the number of survivors were counted and % mortality was determined.
The LC50 values were expressed in both μM and μg/mL.

[3] = read-out: INHIBITION OF Ca^2+ -ATPase IC50
[4] = read-out: INHIBITION OF Ca^2+ -ATPase PERCENT (%)
[5] = at 100 μM, read-out: INHIBITION OF Ca^2+ -ATPase PERCENT (%)
[6] = Artemia salina, 24 h, read-out: % Deaths

Compound	IC50 [1, 3]	inhibition at 100 µM [1, 5]	LC50 ([2]; Artemia salina, 24 hours)	further results
Cc1c(O)cc(CCCCCCCCCCCCCCc2cc(O)cc(O)c2)cc1O [grebustol-A, 1-(3,5-dihydroxy-phenyl)-14-(3,5-dihydroxy-4-methylphenyl)tetradecane]	17 µM	–	–	inhibition at 50 µM ([1]; at 50 μM, read-out: INHIBITION OF Ca^2+ -ATPase PERCENT (%)): 100%
CCCCCCCCCc1cccc(O)c1 [3-nonylphenol]	–	–	–	LC50 ([2]; Artemia salina, 24 h): 320 nM and 0.07 µg/mL; IC50 [1]: 64 µM; inhibition at 100 µM [1, 4]: 69%
CCCCCCCCCCc1ccc(O)cc1 [4-decylphenol]	–	–	–	LC50 ([2]; Artemia salina, 24 h): 270 nM and 0.064 µg/mL; IC50 [1]: 170 µM; inhibition at 100 µM [1, 4]: 24%
Oc1ccc(C2CCCCC2)cc1 [4-cyclohexylphenol]	–	16%	–	LC50 ([2]; Artemia salina, 24 h): > 25 µM and > 4.4 µg/mL; IC50 [1]: 271 µM
CC(C)=CCC/C(C)=C/CC/C(C)=C/Cc1c(C)cc(O)cc1O [neogrifolin, 4-E,E-farnesyl-5-methyl-resorcinol]	23.3 µM	100%	28 µM and 9 µg/mL	relative toxicity to brine shrimp ([2]; neogrifolin compared with grifolin): about ten-fold weaker; Ca^2+ -ATPase inhibitory activity (in words) [1]: most potent among the alkyl and alkenyl resorcinols tested
Cc1cc(Cc2cc(C)cc(C(C)(C)C)c2O)c(O)c(C(C)(C)C)c1 [2,2'-methylenebis(4-methyl-6-tert-butylphenol), reference compound]	45 µM	–	–	inhibition at 100 µM [1, 4]: 74%
CCCCCCCCCc1c(Br)c(O)c(Br)c(O)c1C(=O)OCC [ethyl 3,5-dibromo-2,4-dihydroxy-6-nonylbenzoate]	44 µM	95%	780 nM and 0.36 µg/mL	–
Oc1cc(O)cc(CCCCCCCCCCCCCCc2cc(O)cc(O)c2)c1 [bisnorstriatol, 1,14-bis(3,5-dihydroxyphenyl)tetradecane]	> 100 µM	35%	40 µM and 17 µg/mL	toxicity to brine shrimp (in words) ([2]; 24 hours): relatively low toxicity; inhibition at 500 µM ([1]; at 500 μM): 69.1%
CC(C)(C)c1cc(O)c(O)c(C(C)(C)C)c1 [3,5-di-tert-butyl-catechol, reference compound]	84 µM	76%	–	–
CCCCCCCCC(=O)c1ccc(O)cc1 [4-nonanoylphenol]	–	–	100 nM and 0.024 µg/mL	LC50 ([2]; 24 hours): 0.1 µM
CC(C)(C)CC(C)(C)c1ccc(O)cc1 [4-tert-octylphenol, reference compound]	–	–	–	IC50 [1]: 60 µM; inhibition at 100 µM [1, 4]: 94%
Cc1cc(CCCCCCCCCCc2cccc(C)c2O)ccc1O [1-(2-hydroxy-3-methylphenyl)-10-(4-hydroxy-3-methylphenyl)decane]	–	–	2.2 µM and 0.78 µg/mL	–
CCCCCCCCC(=O)c1ccccc1O [2-nonanoylphenol]	> 100 µM	32%	630 nM and 0.15 µg/mL	–
CCCCCCc1ccc(O)cc1O [4-hexylresorcinol, reference compound]	259 µM	17%	62 µM and 12 µg/mL	–
CC(C)(C)c1cc(C(C)(C)C)c(O)c(C(C)(C)C)c1 [2,4,6-tri-tert-butylphenol, reference compound]	–	79%	–	IC50 [1]: 15 µM
Cc1c(O)cc(CCCCCCCCCCCCc2cc(O)c(C)c(O)c2)cc1O [1,12-bis(3,5-dihydroxy-4-methylphenyl)dodecane]	–	–	> 25 µM and > 10 µg/mL	–

Compound	IC50 [1, 3]	inhibition at 100 µM [1, 5]	LC50 ([2]; Artemia salina, 24 hours)	further results
Oc1ccc(CCCCCCCCCCc2ccc(O)cc2)cc1 [1,10-bis(4-hydroxyphenyl)decane]	93 µM	52%	810 nM and 0.26 µg/mL	–
Cc1cc(C(C)(C)C)c(O)c(C(C)(C)C)c1 [BHT, 2,6-di-tert-butyl-4-methylphenol, reference compound]	66 µM	69%	–	–
CCCCCCCCCCc1cc(O)cc(O)c1 [5-decylresorcinol]	135 µM	30%	54 µM and 15 µg/mL	–
C[S+](C)[O-] [DMSO, dimethyl sulfoxide]	–	–	–	toxicity to brine shrimp (in words) ([2]; 24 hours): No toxicity towards brine shrimp was observed; mortality at 1 % [2, 6]: 0%; mortality at 2 % [2, 6]: 0%; mortality at 3 % [2, 6]: 0%; mortality at 4 % [2, 6]: 0%; mortality at 5 % [2, 6]: 9%; mortality at 7 % [2, 6]: 12%; mortality at 9 % [2, 6]: 18%; mortality at 11 % [2, 6]: 57%; mortality at 13 % [2, 6]: 96%; mortality at 15 % [2, 6]: 100%; mortality at 20 % [2, 6]: 100%; mortality at 25 % [2, 6]: 100%; LC50 brine shrimp, solvent ([2]; solvent): 11 % v/v
Oc1ccc(CCCCCCCCCCCCCCc2ccc(O)cc2)cc1 [1,14-bis(4-hydroxyphenyl)tetradecane]	280 µM	5%	7.9 µM and 3.7 µg/mL	–
CCCCCCCCCCc1ccccc1O [2-decylphenol]	42 µM	85%	680 nM and 0.16 µg/mL	–
CCCCCCCCCCCCCc1cc(O)cc(O)c1 [grevillol, 5-tridecylresorcinol]	143 µM	44%	2.8 µM and 0.8 µg/mL	toxicity to brine shrimp (in words) ([2]; 24 hours): moderately toxic; Ca^2+ -ATPase inhibitory activity (in words) [1]: weak
CCCCCCCCCc1cc(O)c(C)c(O)c1 [2-methyl-5-nonyl-resorcinol]	–	–	8.3 µM and 2.1 µg/mL	–
Oc1ccc(CCCCCCCCCCCCc2ccc(O)cc2)cc1 [1,12-bis(4-hydroxyphenyl)dodecane]	–	–	3.8 µM and 1.4 µg/mL	–
CCCCCCCCCCCCCCCCCc1cc(O)cc(O)c1 [5-heptadecylresorcinol]	–	–	> 100 µM and > 18 µg/mL	–
Cc1c(O)cc(CCCCCCCCCCc2cc(O)c(C)c(O)c2)cc1O [1,10-bis(3,5-dihydroxy-4-methylphenyl)decane]	–	–	> 25 µM and > 9.7 µg/mL	–
Cc1c(O)cc(CCCCCCCCc2cc(O)c(C)c(O)c2)cc1O [1,8-bis(3,5-dihydroxy-4-methylphenyl)octane]	–	–	> 25 µM and > 9 µg/mL	–
Oc1cc(O)cc(CCCCC/C=C\CCCCCCCc2cc(O)cc(O)c2)c1 [grebustol-B, 1,14-bis(3,5-dihydroxyphenyl)tetradec-Z-6-ene]	50 µM	90%	–	Ca^2+ -ATPase inhibitory activity (in words) [1]: weaker
nonylphenol [nonylphenol (commercial), reference compound]	27.5 µM	–	–	INHIBITION OF Ca^2+ -ATPase PERCENT (%) ([1]; at 100 μM): 100%
CCCCCCCCCCCCc1cc2c(C)cc(=O)oc2cc1O [6-dodecyl-7-hydroxy-4-methylcoumarin]	–	–	> 25 µM and > 8.1 µg/mL	–
CCCCCc1cc(O)cc(O)c1 [5-pentylresorcinol (olivetol), 5-pentylresorcinol, reference compound]	–	–	–	LC50 ([2]; Artemia salina, 24 h): > 100 µM and > 18 µg/mL

— patent US5859067A, “Use of natural products and related synthetic compounds for the treatment of cardiovascular disease” (priority 1993, dated 1999)
